In patent publication US20070128217A1 (priority 2003, published 2007):

Key:
[1] = test system: antibodies in sera from SARS patients (sera 1a, 1b, 2, 6, 37, 62, London, SARS-yellow, SARS-green); assay type: binding, human; set-up: Binding of serum 6 to linear peptides of protein X1 of SARS-CoV Urbani / Binding of serum 37 to linear peptides of protein X1 of SARS-CoV Urbani / Binding of serum 6 to looped/cyclic peptide (PEPSCAN-ELISA) / Binding of serum 37 to looped/cyclic peptide (PEPSCAN-ELISA) / Binding of serum 37 to looped/cyclic peptides of protein X1 of SARS-CoV Urbani / Binding of serum 6 to linear peptides of protein X2 / Binding of serum 37 to linear peptides of protein X2 / Binding of serum 37 to looped/cyclic peptides of protein X2 of SARS-CoV Urbani / Binding of serum 6 to linear peptides of protein M of SARS-CoV Urbani / Binding of serum 37 to linear peptides of protein M of SARS-CoV Urbani / Binding of serum 6 to looped/cyclic peptides of protein M of SARS-CoV Urbani / Binding of serum 37 to looped/cyclic peptides of protein M of SARS-CoV Urbani / Binding of serum 6 to linear peptides of protein X3 of SARS-CoV Urbani / Binding of serum 37 to linear peptides of protein X3 of SARS-CoV Urbani / Binding of serum 37 to looped/cyclic peptides of protein X3 of SARS-CoV Urbani / Binding of serum 6 to linear peptides of protein X4 of SARS-CoV Urbani / Binding of serum 37 to linear peptides of protein X4 of SARS-CoV Urbani / Binding of serum 37 to looped/cyclic peptides of protein X4 of SARS-CoV Urbani / Binding of serum 6 to linear peptides of protein X5 of SARS-CoV Urbani / Binding of serum 37 to linear peptides of protein X5 of SARS-CoV Urbani / Binding of serum 37 to looped/cyclic peptides of protein X5 of SARS-CoV Urbani / Binding of serum 6 to linear peptides of protein N of SARS-CoV Urbani / Binding of serum 37 to linear peptides of protein N of SARS-CoV Urbani / Binding of serum 6 to linear peptide (PEPSCAN-ELISA) / Binding of serum 1a to looped/cyclic peptides of protein N of SARS-CoV Urbani / Binding of serum 1b to looped/cyclic peptides of protein N of SARS-CoV Urbani / Binding of serum 2 to looped/cyclic peptides of protein N of SARS-CoV Urbani / Binding of serum 6 to looped/cyclic peptides of protein N of SARS-CoV Urbani / Binding of serum 37 to looped/cyclic peptides of protein N of SARS-CoV Urbani / Binding of serum 62 to looped/cyclic peptides of protein N of SARS-CoV Urbani / Binding of serum London to looped/cyclic peptides of protein N of SARS-CoV Urbani / Binding of serum SARS-green to looped/cyclic peptides of protein N of SARS-CoV Urbani: unit not given here
[2] = test system: control sera (pooled serum of ten healthy LUMC hospital workers; commercial negative donor pooled serum from the Dutch bloodbank); assay type: binding, human; set-up: Binding of Control serum LUMC to linear peptides / Binding of Control serum Blood-bank to linear peptides / Binding of Control serum LUMC to looped peptides / Binding of Control Serum Blood-Bank to Looped peptides / Binding of Control serum LUMC to linear peptides of the protein M of SARS-CoV Urbani / Binding of Control serum Blood-bank to linear peptides of the protein M of SARS-CoV Urbani / Binding of Control serum LUMC to looped peptides of the protein M of SARS-CoV Urbani / Binding of Control Serum Blood-Bank to Looped peptides of the protein M of SARS-CoV Urbani: unit not given here
[3] = test system: rabbit serum obtained by immunizing a rabbit with the SARS-CoV strain Frankfurt 1; assay type: binding; set-up: Binding of a rabbit serum to linear peptides / Binding of a rabbit serum to looped peptides / Rabbit serum linear peptides / Rabbit serum looped peptides / Binding of a rabbit serum to linear peptides of protein N of SARS-CoV Urbani (Rabbit serum linear peptides) / Binding of a rabbit serum to looped/cyclic peptides of protein N of SARS-CoV Urbani (Rabbit serum looped peptides): unit not given here

Sequence: VQTCTPNVTINCQDP
- Binding of serum 1a to linear peptides of protein X5 of SARS-CoV Urbani [1]: 0.7
- Binding of serum 1a to looped/cyclic peptides of protein X5 of SARS-CoV Urbani [1]: 0.6
- Binding of serum 1b to linear peptides of protein X5 of SARS-CoV Urbani [1]: 0.8
- Binding of serum 1b to looped/cyclic peptides of protein X5 of SARS-CoV Urbani [1]: 0.5
- Binding of serum 2 to linear peptides of protein X5 of SARS-CoV Urbani [1]: 0.7
- Binding of serum 2 to looped/cyclic peptides of protein X5 of SARS-CoV Urbani [1]: 0.7
- Binding of serum 6 to linear peptides of protein X5 of SARS-CoV Urbani [1]: 0.8
- Binding of serum 6 to looped/cyclic peptides of protein X5 of SARS-CoV Urbani [1]: 0.2
- Binding of serum 37 to linear peptides of protein X5 of SARS-CoV Urbani [1]: 0.7
- Binding of serum 37 to looped/cyclic peptides of protein X5 of SARS-CoV Urbani [1]: 0.6
- Binding of serum 62 to linear peptides of protein X5 of SARS-CoV Urbani [1]: 0.8
- Binding of serum 62 to looped/cyclic peptides of protein X5 of SARS-CoV Urbani [1]: 0.6
- Binding of serum London to linear peptides of protein X5 of SARS-CoV Urbani [1]: 0.8
- Binding of serum London to looped/cyclic peptides of protein X5 of SARS-CoV Urbani [1]: 0.3
- Binding of serum SARS-green to linear peptides of protein X5 of SARS-CoV Urbani [1]: 0.7
- Binding of serum SARS-green to looped/cyclic peptides of protein X5 of SARS-CoV Urbani [1]: 0.3
- Binding of serum SARS-yellow to linear peptides of protein X5 of SARS-CoV Urbani [1]: 0.3
- Binding of serum SARS-yellow to looped/cyclic peptides of protein X5 of SARS-CoV Urbani [1]: 0.3
- Binding of Control Serum Blood-Bank to Looped peptides [2]: 0.6
- Binding of Control serum Blood-bank to linear peptides [2]: 0.6
- Binding of Control serum LUMC to linear peptides [2]: 0.5
- Binding of Control serum LUMC to looped peptides [2]: 0.4
- Rabbit serum linear peptides [3]: 0.5
- Rabbit serum looped peptides [3]: 0.4

Sequence: VSPKLFIRQEEVQQE
- Binding of serum 1a to linear peptides of protein X4 of SARS-CoV Urbani [1]: 0.7
- Binding of serum 1a to looped/cyclic peptides of protein X4 of SARS-CoV Urbani [1]: 0.6
- Binding of serum 1b to linear peptides of protein X4 of SARS-CoV Urbani [1]: 0.5
- Binding of serum 1b to looped/cyclic peptides of protein X4 of SARS-CoV Urbani [1]: 1.0
- Binding of serum 2 to linear peptides of protein X4 of SARS-CoV Urbani [1]: 0.3
- Binding of serum 2 to looped/cyclic peptides of protein X4 of SARS-CoV Urbani [1]: 0.8
- Binding of serum 6 to linear peptides of protein X4 of SARS-CoV Urbani [1]: 0.3
- Binding of serum 6 to looped/cyclic peptides of protein X4 of SARS-CoV Urbani [1]: 0.4
- Binding of serum 37 to linear peptides of protein X4 of SARS-CoV Urbani [1]: 0.7
- Binding of serum 37 to looped/cyclic peptides of protein X4 of SARS-CoV Urbani [1]: 0.9
- Binding of serum 62 to linear peptides of protein X4 of SARS-CoV Urbani [1]: 0.7
- Binding of serum 62 to looped/cyclic peptides of protein X4 of SARS-CoV Urbani [1]: 0.8
- Binding of serum London to linear peptides of protein X4 of SARS-CoV Urbani [1]: 0.8
- Binding of serum London to looped/cyclic peptides of protein X4 of SARS-CoV Urbani [1]: 0.6
- Binding of serum SARS-green to linear peptides of protein X4 of SARS-CoV Urbani [1]: 0.6
- Binding of serum SARS-green to looped/cyclic peptides of protein X4 of SARS-CoV Urbani [1]: 1.2
- Binding of serum SARS-yellow to linear peptides of protein X4 of SARS-CoV Urbani [1]: 0.3
- Binding of serum SARS-yellow to looped/cyclic peptides of protein X4 of SARS-CoV Urbani [1]: 0.5
- Binding of Control Serum Blood-Bank to Looped peptides [2]: 0.4
- Binding of Control serum Blood-bank to linear peptides [2]: 0.5
- Binding of Control serum LUMC to linear peptides [2]: 0.4
- Binding of Control serum LUMC to looped peptides [2]: 0.7
- Rabbit serum linear peptides [3]: 0.4
- Rabbit serum looped peptides [3]: 0.3

Sequence: VSTNLCTHSFRKKQV
- Binding of serum 1a to looped/cyclic peptides of protein X2 of SARS-CoV Urbani [1]: 0.5
- Binding of serum 1b to looped/cyclic peptides of protein X2 of SARS-CoV Urbani [1]: 0.3
- Binding of serum 2 to looped/cyclic peptides of protein X2 of SARS-CoV Urbani [1]: 0.6
- Binding of serum 6 to looped/cyclic peptides of protein X2 of SARS-CoV Urbani [1]: 0.5
- Binding of serum 37 to looped/cyclic peptides of protein X2 of SARS-CoV Urbani [1]: 0.5
- Binding of serum 62 to looped/cyclic peptides of protein X2 of SARS-CoV Urbani [1]: 0.6
- Binding of serum London to looped/cyclic peptides of protein X2 of SARS-CoV Urbani [1]: 0.1
- Binding of serum SARS-green to looped/cyclic peptides of protein X2 of SARS-CoV Urbani [1]: 0.3
- Binding of serum SARS-yellow to looped/cyclic peptides of protein X2 of SARS-CoV Urbani [1]: 0.4
- Recognition of the peptide by sera of SARS-CoV infected individuals, and form (linear, looped/cyclic) in which it is recognized [1]: recognized in linear form
- Binding of Control Serum Blood-Bank to Looped peptides [2]: 0.5
- Binding of Control serum Blood-bank to linear peptides [2]: 0.8
- Binding of Control serum LUMC to linear peptides [2]: 0.6
- Binding of Control serum LUMC to looped peptides [2]: 0.7
- Binding of a rabbit serum to linear peptides [3]: 0.3
- Binding of a rabbit serum to looped peptides [3]: 0.2

Sequence: VTDTIVVTEGDGIST
- Binding of serum 1a to linear peptides of protein X1 of SARS-CoV Urbani [1]: 0.6
- Binding of serum 1a to looped/cyclic peptides of protein X1 of SARS-CoV Urbani [1]: 0.4
- Binding of serum 1b to linear peptides of protein X1 of SARS-CoV Urbani [1]: 0.5
- Binding of serum 1b to looped/cyclic peptides of protein X1 of SARS-CoV Urbani [1]: 0.3
- Binding of serum 2 to linear peptides of protein X1 of SARS-CoV Urbani [1]: 0.3
- Binding of serum 2 to looped/cyclic peptides of protein X1 of SARS-CoV Urbani [1]: 0.2
- Binding of serum 6 to linear peptides of protein X1 of SARS-CoV Urbani [1]: 0.4
- Binding of serum 6 to looped/cyclic peptides of protein X1 of SARS-CoV Urbani [1]: 0.1
- Binding of serum 37 to linear peptides of protein X1 of SARS-CoV Urbani [1]: 0.5
- Binding of serum 37 to looped/cyclic peptides of protein X1 of SARS-CoV Urbani [1]: 0.4
- Binding of serum 62 to linear peptides of protein X1 of SARS-CoV Urbani [1]: 0.4
- Binding of serum 62 to looped/cyclic peptides of protein X1 of SARS-CoV Urbani [1]: 0.4
- Binding of serum London to linear peptides of protein X1 of SARS-CoV Urbani [1]: 0.2
- Binding of serum London to looped/cyclic peptides of protein X1 of SARS-CoV Urbani [1]: 0.2
- Binding of serum SARS-green to linear peptides of protein X1 of SARS-CoV Urbani [1]: 0.1
- Binding of serum SARS-green to looped/cyclic peptides of protein X1 of SARS-CoV Urbani [1]: 0.2
- Binding of serum SARS-yellow to linear peptides of protein X1 of SARS-CoV Urbani [1]: 0.3
- Binding of serum SARS-yellow to looped/cyclic peptides of protein X1 of SARS-CoV Urbani [1]: 0.5
- Binding of Control Serum Blood-Bank to Looped peptides [2]: 0.4
- Binding of Control serum Blood-bank to linear peptides [2]: 0.4
- Binding of Control serum LUMC to linear peptides [2]: 0.4
- Binding of Control serum LUMC to looped peptides [2]: 0.4
- Binding of a rabbit serum to linear peptides [3]: 0.1
- Binding of a rabbit serum to looped peptides [3]: 0.5
